Patent publication US20190133128A1, “Fungicidal pyridazinones” (FMC Corporation, priority 2017, published 2019)

Legend:
Type in all cases: in vivo
Plasmopara viticola = experiment: Test B: preventive spray on grape seedlings, grape downy mildew, disease rating
Text: General protocol for preparing test solutions for Tests AG: the test compounds were first dissolved in acetone in an amount equal to 3% of the final volume and then suspended at the desired concentration (in ppm) in acetone and purified water (50/50 mix by volume) containing the surfactant PEG400 (polyhydric alcohol esters). The resulting test suspensions were then used in Tests AG. Compounds were sprayed at a concentration of 250 ppm or other indicated rate to the point of run-off on the test plants. The test solution was sprayed to the point of run-off on grape seedlings. […] A dash (-) indicates no test results.

Zymoseptoria tritici = experiment: Test E: preventive spray on wheat seedlings, wheat leaf blotch, visual disease rating
Method in brief: (§1)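 Preventive foliar spray of wheat seedlings to run-off, at 250 ppm or other indicated rate. Compounds dissolved in acetone (3% of final volume), suspended in 50/50 acetone–water with PEG400 surfactant. Disease rated visually.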

Botrytis cinerea = experiment: Test C: preventive spray on tomato seedlings, gray mold, visual disease rating
Method in brief: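 Compounds predissolved in acetone (3% of final volume), then suspended in 50/50 acetone/water with PEG400 surfactant. Sprayed preventively at 250 ppm or other indicated rate to run-off on tomato seedlings before Botrytis challenge; disease rated visually.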

Phakopsora pachyrhizi = experiment: Test A: preventive spray on soybean seedlings, Asian soybean rust, visual disease rating
[1] = test system: Erysiphe graminis f. sp. tritici; experiment: Test G: preventive spray on wheat seedlings, wheat powdery mildew, visual disease rating
Method in brief: as §1

[2] = test system: Puccinia recondita f. sp. tritici; experiment: Test F: preventive spray on wheat seedlings, wheat leaf rust, visual disease rating
Method in brief: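 Compounds were dissolved in acetone/water (50/50) with PEG400 surfactant and sprayed to run-off on wheat seedlings, at 250 ppm unless another rate is indicated. The next day, seedlings were inoculated with a Puccinia recondita f. sp. tritici spore suspension; disease was rated visually.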

Phytophthora infestans = experiment: whole plant or invertebrate; conditions: tomato seedlings
[3] = 250 ppm, 100 = 100% disease control, 0 = no control

| Compound | Test B disease control rating (Plasmopara viticola; [3]) | Test E disease control rating (Zymoseptoria tritici; [3]) | Test C disease control rating (Botrytis cinerea; [3]) | Test A disease control rating (Phakopsora pachyrhizi; [3]) | Test G disease control rating [1, 3] | Test F disease control rating [2, 3] | Test D disease control rating (Phytophthora infestans; [3]) | Test B disease control rating (Plasmopara viticola; 50 ppm) | Test E disease control rating (Zymoseptoria tritici; 50 ppm) | Test C disease control rating (Botrytis cinerea; 50 ppm) | Test A disease control rating (Phakopsora pachyrhizi; 50 ppm) | Test G disease control rating ([1]; 50 ppm) | Test F disease control rating ([2]; 50 ppm) | Test D disease control rating (Phytophthora infestans; 50 ppm) |
| --- | --- | --- | --- | --- | --- | --- | --- | --- | --- | --- | --- | --- | --- | --- |
| CSc1cnn(C)c(=O)c1C(=O)Nc1ccc(OC(F)(F)F)cc1 [Compound 109] | 0% | 0% | 0% | 0% | 55% | 0% | 0% | – | – | – | – | – | – | – |
| Cn1ncc([S+](C)[O-])c(C(=O)Nc2ccc(OC(F)(F)F)cc2)c1=O (centres unmarked) [Compound 110] | – | – | – | – | – | – | – | 0% | 88% | 0% | 92% | 0% | 74% | 0% |
| Cn1ncc(S(C)(=O)=O)c(C(=O)Nc2ccc(OC(F)(F)F)cc2)c1=O [Compound 111] | 0% | 93% | 0% | 98% | 0% | 96% | 9% | – | – | – | – | – | – | – |
| Cn1ncc([O-])c(C(=O)Nc2ccc(S(F)(F)(F)(F)F)cc2)c1=O.[Na+] [Compound 113] | 96% | 79% | 0% | 73% | 90% | 94% | 81% | – | – | – | – | – | – | – |
| Cn1ncc(O)c(C(=O)Nc2cnc(Cl)cn2)c1=O [Compound 114] | 90% | 55% | 0% | 39% | 0% | 95% | 80% | – | – | – | – | – | – | – |
| COc1ccc(Cn2ncc(O)c(C(=O)Nc3ccc(OC(F)(F)F)cc3)c2=O)cc1 [Compound 115] | 0% | 26% | 0% | 0% | 0% | 68% | 0% | – | – | – | – | – | – | – |
| Cn1ncc(OS(=O)(=O)Cc2ccccc2)c(C(=O)Nc2ccc(OC(F)(F)F)cc2)c1=O [Compound 116] | 99% | 60% | 0% | 25% | 0% | 97% | 0% | – | – | – | – | – | – | – |
| COC(=O)c1ccc(NC(=O)c2c(O)cnn(C)c2=O)cc1 [Compound 121] | 86% | 14% | 0% | 0% | 0% | 80% | 99% | – | – | – | – | – | – | – |
| Cn1ncc(O)c(C(=O)Nc2ccccc2C(F)(F)F)c1=O [Compound 122] | 98% | 96% | 0% | 0% | 96% | 86% | 95% | – | – | – | – | – | – | – |
| Cn1ncc(O)c(C(=O)Nc2ccc(Cl)cc2F)c1=O [Compound 123] | 90% | 91% | 63% | 81% | 92% | 100% | 90% | – | – | – | – | – | – | – |
| CONc1cnn(C)c(=O)c1C(=O)Nc1ccc(OC(F)(F)F)cc1 [Compound 127] | 23% | 27% | 0% | 0% | 0% | 0% | 0% | – | – | – | – | – | – | – |
| Cn1ncc(OC/C=C/c2ccccc2)c(C(=O)Nc2ccc(OC(F)(F)F)cc2)c1=O [Compound 132] | 25% | 50% | 0% | 0% | 97% | 91% | 17% | – | – | – | – | – | – | – |
| Cn1ncc(O)c(C(=O)Nc2ccc(F)cc2Cl)c1=O [Compound 134] | 92% | 45% | 0% | 75% | 90% | 32% | 0% | – | – | – | – | – | – | – |
| CON(C)c1cnn(C)c(=O)c1C(=O)Nc1ccc(OC(F)(F)F)cc1 [Compound 135] | 27% | 2% | 0% | 0% | 0% | 0% | 0% | – | – | – | – | – | – | – |
| Cn1ncc(O)c(C(=O)Nc2ccc(C(F)(F)F)cc2Cl)c1=O [Compound 137] | 100% | 30% | 0% | 0% | 47% | 96% | 97% | – | – | – | – | – | – | – |
| Cn1ncc(O)c(C(=O)Nc2ccc(CC(F)(F)F)cc2)c1=O [Compound 140] | 100% | 88% | 0% | 0% | 27% | 99% | 96% | – | – | – | – | – | – | – |
| Cn1ncc(O)c(C(=O)Nc2ccc(OC(F)(F)F)cc2Cl)c1=O [Compound 142] | 99% | 77% | 26% | 71% | 98% | 99% | 92% | – | – | – | – | – | – | – |
| CCCC[N+](CCCC)(CCCC)CCCC.Cn1ncc([O-])c(C(=O)Nc2ccc(S(F)(F)(F)(F)F)cc2)c1=O [Compound 143] | 100% | 88% | 0% | 62% | 69% | 94% | 70% | – | – | – | – | – | – | – |
| CNc1cnn(C)c(=O)c1C(=O)Nc1ccc(OC(F)(F)F)cc1 [Compound 146] | 10% | 0% | 0% | 0% | 0% | 0% | 0% | – | – | – | – | – | – | – |
| Cn1ncc(O)c(C(=O)Nc2ccc(C(F)(F)F)cc2C(F)(F)F)c1=O [Compound 147] | 97% | 87% | 0% | 0% | 98% | 99% | 99% | – | – | – | – | – | – | – |
| Cn1ncc(O)c(C(=O)Nc2cccc(Oc3ccccc3)c2)c1=O [Compound 151] | 83% | – | 0% | 0% | 13% | 85% | 0% | – | – | – | – | – | – | – |
